{"source": "patent US8173638B2", "about": "(Boehringer Ingelheim International GmbH, priority 2006, dated 2012)", "target": "T1, human CB2R (Homo sapiens, UniProt P34972)", "T1 construct": "host or cells: CHO cells", "T1 sequence (P34972 whole entry)": "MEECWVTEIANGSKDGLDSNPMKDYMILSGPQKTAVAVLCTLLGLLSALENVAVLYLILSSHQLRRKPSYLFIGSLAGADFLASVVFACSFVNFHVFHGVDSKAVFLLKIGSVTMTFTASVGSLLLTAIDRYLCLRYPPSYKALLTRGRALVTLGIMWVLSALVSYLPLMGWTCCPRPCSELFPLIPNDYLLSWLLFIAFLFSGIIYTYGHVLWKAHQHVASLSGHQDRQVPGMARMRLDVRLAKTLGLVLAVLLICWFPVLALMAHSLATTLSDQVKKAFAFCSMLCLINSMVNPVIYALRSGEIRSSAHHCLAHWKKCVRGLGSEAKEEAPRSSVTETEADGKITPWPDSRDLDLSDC", "assay": "CB2R mediated modulation of cAMP synthesis", "assay_type": "cell-based", "settings": "for agonistic activity: found through the use of the described assays (CB2 agonists), qualitative statement; for Emax: 0.5 h, read-out: Agonist Efficacy (%)", "experimental": "B. CB2R Mediated Modulation of cAMP Synthesis:\nCHO cells expressing human CB2R (Euroscreen) were plated at a density of 5000 cells per well in 384 well plates and incubated overnight at 37° C. After removing the media, the cells were treated with test compounds diluted in stimulation buffer containing 1 mM IBMX, 0.25% BSA and 10 uM Forskolin. The assay was incubated for 30 minutes at 37° C. Cells were lysed and the cAMP concentration was measured using DiscoverX-XS cAMP kit, following the manufacturer's protocol. In this setting, agonists will decrease forskolin induced production of cAMP while inverse agonists will further increase forskolin induced production of cAMP. EC50 of agonists were calculated as follows. The maximal amount of cAMP produced by forskolin compared to the level of cAMP inhibited by 1 uM CP55940 is defined as 100%. […] Data was analyzed using a four-parameter logistic model. (Model 205 of XLfit 4.0).", "key": {"[1]": {"settings": "CHO cells expressing human CB2R, cAMP inhibited by 1 uM CP55940 defined as 100%"}}, "note": "pEC50: −log10 of the molar value. Where two headings read alike, the source gives them in different places."}
{"smiles": "O=C(Nc1cc(C(F)(F)F)ccn1)N1CCCN(C(=O)C2CCOCC2)CC1", "note": "[4-(Tetrahydro-pyran-4-carbonyl)-[1,4]diazepane-1-carboxylic acid (4-trifluoromethyl-pyridin-2-yl)-amide]", "values": [{"measurement": "agonistic activity", "result": "agonistic activity"}]}
{"smiles": "CC(C)(C)c1cnc(NC(=O)N2CCCN(C(=O)N3CCS(=O)(=O)CC3)CC2)s1", "note": "[Compound 214, 4-(1,1-Dioxo-1 λ^6-thiomorpholine-4-carbonyl)-[1,4]diazepane-1-carboxylic acid (5-tert-butyl-thiazol-2-yl)-amide]", "values": [{"measurement": "Emax", "setting": "[1]", "result": 95, "unit": "%"}, {"measurement": "pEC50", "setting": "read-out: hCB2 cAMP EC50", "result": 7.70}]}
{"smiles": "O=C(CC1CCOCC1)N1CCCN(C(=O)Nc2ccc3c(c2)OC(F)(F)O3)CC1", "note": "[4-(2-Tetrahydro-pyran-4-yl-acetyl)-[1,4]diazepane-1-carboxylic acid (2,2-difluoro-benzo[1,3]dioxol-5-yl)-amide]", "values": [{"measurement": "agonistic activity", "result": "agonistic activity"}]}
{"smiles": "CCC(C)c1ccc(NC(=O)N2CCCN(C(=O)CC3CCCC3)CC2)cc1", "note": "(stereo not shown) [Compound 52, 4-(2-Cyclopentyl-acetyl)-[1,4]diazepane-1-carboxylic acid (4-sec-butyl-phenyl)-amide]", "values": [{"measurement": "pEC50", "result": 8.15}, {"measurement": "Emax", "setting": "CHO", "result": 98, "unit": "%"}]}
{"smiles": "CC(C)(C)c1cc(NC(=O)N2CCCN(C(=O)N3CCSCC3)CC2)no1", "note": "[Compound 203, 4-(Thiomorpholine-4-carbonyl)-[1,4]diazepane-1-carboxylic acid (5-tert-butyl-isoxazol-3-yl)-amide]", "values": [{"measurement": "Emax", "setting": "[1]", "result": 107, "unit": "%"}, {"measurement": "pEC50", "setting": "read-out: hCB2 cAMP EC50", "result": 7.21}]}
{"smiles": "CC(C)(C)c1ccc(NC(=O)N2CCCN(C(=O)c3ccc(C#N)cc3)CC2)cc1", "note": "[Compound 112, 4-(4-Cyano-benzoyl)-[1,4]diazepane-1-carboxylic acid (4-tert-butyl-phenyl)-amide]", "values": [{"measurement": "Emax", "setting": "[1]", "result": 109, "unit": "%"}, {"measurement": "pEC50", "setting": "read-out: hCB2 cAMP EC50", "result": 7.72}]}
{"smiles": "CC(C)(C)c1cc(NC(=O)N2CCCN(C(=O)N3CCC(F)(F)CC3)CC2)no1", "note": "[Compound 206, 4-(4,4-Difluoro-piperidine-1-carbonyl)-[1,4]diazepane-1-carboxylic acid (5-tert-butyl-isoxazol-3-yl)-amide]", "values": [{"measurement": "pEC50", "result": 7.80}, {"measurement": "Emax", "setting": "CHO", "result": 105, "unit": "%"}]}
{"smiles": "CC(C)(C)c1cc(NC(=O)N2CCCN(C(=O)CC3CCCC3)CC2)no1", "note": "[4-(2-Cyclopentyl-acetyl)-[1,4]diazepane-1-carboxylic acid (5-tert-butyl-isoxazol-3-yl)-amide]", "values": [{"measurement": "agonistic activity", "result": "agonistic activity"}]}
{"smiles": "CC(C)(C)c1cc(NC(=O)N2CCCN(C(=O)CN3CCC(F)(F)CC3)CC2)no1", "note": "[Compound 229, 4-[2-(4,4-Difluoro-piperidin-1-yl)-acetyl]-[1,4]diazepane-1-carboxylic acid (5-tert-butyl-isoxazol-3-yl)-amide]", "values": [{"measurement": "Emax", "setting": "[1]", "result": 104, "unit": "%"}, {"measurement": "pEC50", "setting": "read-out: hCB2 cAMP EC50", "result": 7.62}]}
{"smiles": "O=C(Nc1ccc(C(F)(F)F)cn1)N1CCCN(C(=O)C2CCOCC2)CC1", "note": "[4-(Tetrahydro-pyran-4-carbonyl)-[1,4]diazepane-1-carboxylic acid (5-trifluoromethyl-pyridin-2-yl)-amide]", "values": [{"measurement": "agonistic activity", "result": "agonistic activity"}]}
{"smiles": "O=C(Nc1ccc(SC(F)(F)F)cc1)N1CCCN(C(=O)C2CCCCC2)CC1", "note": "[Compound 80, 4-Cyclohexanecarbonyl-[1,4]diazepane-1-carboxylic acid (4-trifluoromethylsulfanyl-phenyl)-amide]", "values": [{"measurement": "Emax", "setting": "[1]", "result": 99, "unit": "%"}, {"measurement": "pEC50", "setting": "read-out: hCB2 cAMP EC50", "result": 7.92}]}
{"smiles": "O=C(CC1CCCC1)N1CCCN(C(=O)Nc2ccc3ccccc3c2)CC1", "note": "[4-(2-Cyclopentyl-acetyl)-[1,4]diazepane-1-carboxylic acid (2-naphthyl)-amide]", "values": [{"measurement": "agonistic activity", "result": "agonistic activity"}]}
{"smiles": "O=C(CC1CCCC1)N1CCCN(C(=O)Nc2ccc(-c3ccccc3)cc2)CC1", "note": "[4-(2-Cyclopentyl-acetyl)-[1,4]diazepane-1-carboxylic acid (4-biphenyl)-amide]", "values": [{"measurement": "agonistic activity", "result": "agonistic activity"}]}
{"smiles": "Cc1nc(NC(=O)N2CCCN(C(=O)C3CCC(F)(F)CC3)CC2)sc1C(C)(C)C", "note": "[Compound 169, 4-(4,4-Difluoro-cyclohexanecarbonyl)-[1,4]diazepane-1-carboxylic acid (5-tert-butyl-4-methyl-thiazol-2-yl)-amide]", "values": [{"measurement": "Emax", "setting": "[1]", "result": 95, "unit": "%"}, {"measurement": "pEC50", "setting": "read-out: hCB2 cAMP EC50", "result": 9.15}]}
{"smiles": "CCC(C)c1ccc(NC(=O)N2CCCN(C(=O)N3CCOCC3)CC2)cc1", "note": "(stereo not shown) [4-(Morpholine-4-carbonyl)-[1,4]diazepane-1-carboxylic acid (4-sec-butyl-phenyl)-amide]", "values": [{"measurement": "agonistic activity", "result": "agonistic activity"}]}
{"smiles": "CC(C)(C)c1cc(NC(=O)N2CCCN(C(=O)N3CCOCC3)CC2)on1", "note": "[Compound 225, 4-(Morpholine-4-carbonyl)-[1,4]diazepane-1-carboxylic acid (3-tert-butyl-isoxazol-5-yl)-amide]", "values": [{"measurement": "Emax", "setting": "[1]", "result": 106, "unit": "%"}, {"measurement": "pEC50", "setting": "read-out: hCB2 cAMP EC50", "result": 7.27}]}
{"smiles": "O=C(Nc1cc(-c2ccccc2)on1)N1CCCN(C(=O)C2CCOCC2)CC1", "note": "[4-(Tetrahydro-pyran-4-carbonyl)-[1,4]diazepane-1-carboxylic acid (5-phenyl-isoxazol-3-yl)-amide]", "values": [{"measurement": "agonistic activity", "result": "agonistic activity"}]}
{"smiles": "CC(C)(C)c1cc(NC(=O)N2CCCN(C(=O)C3CCC(F)(F)CC3)CC2)no1", "note": "[4-(4,4-Difluoro-cyclohexanecarbonyl)-[1,4]diazepane-1-carboxylic acid (5-tert-butyl-isoxazol-3-yl)-amide]", "values": [{"measurement": "agonistic activity", "result": "agonistic activity"}]}
{"smiles": "O=C(Nc1cc(-c2ccccc2)no1)N1CCCN(C(=O)N2CCOCC2)CC1", "note": "[4-(Morpholine-4-carbonyl)-[1,4]diazepane-1-carboxylic acid (3-phenyl-isoxazol-5-yl)-amide]", "values": [{"measurement": "agonistic activity", "result": "agonistic activity"}]}
{"smiles": "O=C(Nc1ccc2ccccc2c1)N1CCCN(C(=O)C2CCCCC2)CC1", "note": "[Compound 68, 4-Cyclohexanecarbonyl-[1,4]diazepane-1-carboxylic acid naphthalen-2-ylamide]", "values": [{"measurement": "Emax", "setting": "[1]", "result": 99, "unit": "%"}, {"measurement": "pEC50", "setting": "read-out: hCB2 cAMP EC50", "result": 7.59}]}
{"smiles": "CC(C)(C)c1cc(NC(=O)N2CCCN(C(=O)CC3CCCO3)CC2)no1", "note": "(stereo not shown) [4-(2-Tetrahydro-furan-2-yl-acetyl)-[1,4]diazepane-1-carboxylic acid (5-tert-butyl-isoxazol-3-yl)-amide]", "values": [{"measurement": "agonistic activity", "result": "agonistic activity"}]}
{"smiles": "CC(C)(C)c1cnc(NC(=O)N2CCCN(C(=O)C3CCC(O)CC3)CC2)s1", "note": "(stereo not shown) [4-(4-Hydroxy-cyclohexanecarbonyl)-[1,4]diazepane-1-carboxylic acid (5-tert-butyl-thiazol-2-yl)-amide]", "values": [{"measurement": "agonistic activity", "result": "agonistic activity"}]}
{"smiles": "CCc1ccnc(NC(=O)N2CCCN(C(=O)C3CCOCC3)CC2)c1", "note": "[4-(Tetrahydro-pyran-4-carbonyl)-[1,4]diazepane-1-carboxylic acid (4-ethyl-pyridin-2-yl)-amide]", "values": [{"measurement": "agonistic activity", "result": "agonistic activity"}]}
{"smiles": "C[C@@H]1CN(C(=O)N2CCCN(C(=O)Nc3cc(C(C)(C)C)on3)CC2)C[C@H](C)O1", "note": "[4-((2R,6S)-2,6-Dimethyl-morpholine-4-carbonyl)-[1,4]diazepane-1-carboxylic acid (5-tert-butyl-isoxazol-3-yl)-amide]", "values": [{"measurement": "agonistic activity", "result": "agonistic activity"}]}
{"smiles": "O=C(Nc1ccc2ccccc2c1)N1CCCN(C(=O)c2cc(Cl)ccc2Cl)CC1", "note": "[Compound 90, 4-(2,5-Dichloro-benzoyl)-[1,4]diazepane-1-carboxylic acid naphthalen-2-ylamide]", "values": [{"measurement": "Emax", "setting": "[1]", "result": 91, "unit": "%"}, {"measurement": "pEC50", "setting": "read-out: hCB2 cAMP EC50", "result": 7.70}]}
{"smiles": "O=C(CC1CCCC1)N1CCCN(C(=O)Nc2cccc(C(F)(F)F)c2)CC1", "note": "[4-(2-Cyclopentyl-acetyl)-[1,4]diazepane-1-carboxylic acid (3-trifluoromethyl-phenyl)-amide]", "values": [{"measurement": "agonistic activity", "result": "agonistic activity"}]}
{"smiles": "CC(C)(C)c1cc(NC(=O)N2CCCN(C(=O)N3CCS(=O)(=O)CC3)CC2)on1", "note": "[4-(1,1-Dioxo-1λ^6-thiomorpholine-4-carbonyl)-[1,4]diazepane-1-carboxylic acid (3-tert-butyl-isoxazol-5-yl)-amide]", "values": [{"measurement": "agonistic activity", "result": "agonistic activity"}]}
{"smiles": "CCCc1ccc(NC(=O)N2CCCN(C(=O)CCC3CCCC3)CC2)cc1", "note": "[4-(3-Cyclopentyl-propionyl)-[1,4]diazepane-1-carboxylic acid (4-propyl-phenyl)-amide]", "values": [{"measurement": "agonistic activity", "result": "agonistic activity"}]}
{"smiles": "O=C(Nc1nc2c(s1)CCCC2)N1CCCN(C(=O)C2CCOCC2)CC1", "note": "[4-(Tetrahydro-pyran-4-carbonyl)-[1,4]diazepane-1-carboxylic acid (4,5,6,7-tetrahydro-benzothiazol-2-yl)-amide]", "values": [{"measurement": "agonistic activity", "result": "agonistic activity"}]}
{"smiles": "CCC(C)c1ccc(NC(=O)N2CCCN(C(=O)C3CCOCC3)CC2)nc1", "note": "(stereo not shown) [4-(Tetrahydro-pyran-4-carbonyl)-[1,4]diazepane-1-carboxylic acid (5-sec-butyl-pyridin-2-yl)-amide]", "values": [{"measurement": "agonistic activity", "result": "agonistic activity"}]}
{"smiles": "CCCCc1ccc(NC(=O)N2CCCN(C(=O)CC3CCCCC3)CC2)cc1", "note": "[4-(2-Cyclohexyl-acetyl)-[1,4]diazepane-1-carboxylic acid (4-butyl-phenyl)-amide]", "values": [{"measurement": "agonistic activity", "result": "agonistic activity"}]}
{"smiles": "CCc1ccc(NC(=O)N2CCCN(C(=O)CCC3CCCC3)CC2)cc1", "note": "[4-(3-Cyclopentyl-propionyl)-[1,4]diazepane-1-carboxylic acid (4-ethyl-phenyl)-amide]", "values": [{"measurement": "agonistic activity", "result": "agonistic activity"}]}
{"smiles": "O=C(Nc1ccc2ccccc2c1)N1CCCN(C(=O)c2ccc(C(F)(F)F)cc2)CC1", "note": "[Compound 92, 4-(4-Trifluoromethyl-benzoyl)-[1,4]diazepane-1-carboxylic acid naphthalen-2-ylamide]", "values": [{"measurement": "Emax", "setting": "[1]", "result": 96, "unit": "%"}, {"measurement": "pEC50", "setting": "read-out: hCB2 cAMP EC50", "result": 7.85}]}
{"smiles": "O=C(Nc1nc(-c2ccccc2)cs1)N1CCCN(C(=O)c2ccc(Cl)cc2)CC1", "note": "[4-(4-Chloro-benzoyl)-[1,4]diazepane-1-carboxylic acid (4-phenyl-thiazol-2-yl)-amide]", "values": [{"measurement": "agonistic activity", "result": "agonistic activity"}]}
